One may read the IC50 as the point on the concentration scale where inhibition reaches its midpoint. Read a low IC50 as inhibition by little substance.

The text below walks through data of BindingDB's records for patent US20240299360 (Jiangsu Hengrui Pharmaceuticals, 2024).

Several values for one entry are separate records, joined by “and”; a condition that tells them apart may be missing. Equal entries are not always repeated.

Experiment [1] addresses T1, A disintegrin and metalloproteinase with thrombospondin motifs 5 (Homo sapiens, UniProt Q9UNA0).
T1 sequence (Q9UNA0 whole entry): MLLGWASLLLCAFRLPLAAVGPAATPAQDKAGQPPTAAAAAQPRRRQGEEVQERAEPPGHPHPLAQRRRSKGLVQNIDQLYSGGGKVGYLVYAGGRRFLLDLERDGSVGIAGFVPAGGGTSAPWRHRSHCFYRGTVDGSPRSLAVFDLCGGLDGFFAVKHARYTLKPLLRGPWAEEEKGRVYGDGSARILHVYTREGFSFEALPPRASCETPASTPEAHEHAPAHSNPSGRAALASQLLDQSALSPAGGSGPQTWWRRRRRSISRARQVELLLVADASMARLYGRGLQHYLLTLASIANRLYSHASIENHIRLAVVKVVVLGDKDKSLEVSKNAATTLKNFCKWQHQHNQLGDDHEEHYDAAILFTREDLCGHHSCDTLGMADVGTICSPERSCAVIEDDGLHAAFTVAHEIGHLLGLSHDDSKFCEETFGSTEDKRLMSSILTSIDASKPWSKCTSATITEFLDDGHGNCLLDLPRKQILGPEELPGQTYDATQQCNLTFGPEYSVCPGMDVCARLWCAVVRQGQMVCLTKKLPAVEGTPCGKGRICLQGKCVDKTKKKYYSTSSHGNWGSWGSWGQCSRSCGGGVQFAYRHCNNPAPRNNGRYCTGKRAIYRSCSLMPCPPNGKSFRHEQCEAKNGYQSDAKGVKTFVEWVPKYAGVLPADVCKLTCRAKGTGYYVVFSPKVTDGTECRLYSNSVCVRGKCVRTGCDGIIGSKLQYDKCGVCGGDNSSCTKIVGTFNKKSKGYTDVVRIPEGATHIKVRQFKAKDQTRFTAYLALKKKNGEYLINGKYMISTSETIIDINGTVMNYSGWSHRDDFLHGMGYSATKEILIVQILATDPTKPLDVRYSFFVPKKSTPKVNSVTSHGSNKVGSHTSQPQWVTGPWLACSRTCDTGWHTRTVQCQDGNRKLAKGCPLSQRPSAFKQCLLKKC
The experiment can be described thus: In Vitro ELISA (Enzyme-Linked Immunosorbent Assay) of ADAMTS-5 Activity. On the procedure:
Table 2: In this assay, the enzymatic activity of recombinant ADAMTS-5 protein (catalog #2198-AD, R&D Systems) was assayed with a protein substrate, the aggrecan IGD protein. The aggrecan IGD protein is a polypeptide connecting human aggrecan globular domains 1 and 2 (T331-G458) expressed in E. Coli with a C-terminal His-tag (catalog #30411000, BIOTEZ). The enzymatic product ARGSVIL-peptide was detected using an ELISA kit from BioTEZ (catalog #30510111). An assay buffer containing 50 mM HEPES pH 7.5, 100 mM NaCl, 5 mM CaCl2), 0.1% CHAPS and 5% Glycerol was prepared. Recombinant ADAMTS-5 protein was diluted to 0.3 nM in the assay buffer. […] and 10 μl of compound solution was transferred to each well of a 96-well plate and incubated at room temperature for 15 minutes. Substrate aggrecan-IGD was diluted to 100 nM with the assay buffer and 20 μl was added to each well. The plate was incubated at 37° C. for 45 minutes. After incubation, the newly generated epitope ARGSVIL-peptides were measured using the Aggrecanase Activity ELISA Assay Kit following the manufacturer's instructions. Then, 100 μl of stop solution was added and the absorbance of each well was read at 450 nm, using […] as reference on a TECAN plate reader.
For orientation: ELISA stands for enzyme-linked immunosorbent assay.

Experiment [2] deals with T2, A disintegrin and metalloproteinase with thrombospondin motifs 4 (Homo sapiens, UniProt O75173).
T2 sequence (O75173 whole entry): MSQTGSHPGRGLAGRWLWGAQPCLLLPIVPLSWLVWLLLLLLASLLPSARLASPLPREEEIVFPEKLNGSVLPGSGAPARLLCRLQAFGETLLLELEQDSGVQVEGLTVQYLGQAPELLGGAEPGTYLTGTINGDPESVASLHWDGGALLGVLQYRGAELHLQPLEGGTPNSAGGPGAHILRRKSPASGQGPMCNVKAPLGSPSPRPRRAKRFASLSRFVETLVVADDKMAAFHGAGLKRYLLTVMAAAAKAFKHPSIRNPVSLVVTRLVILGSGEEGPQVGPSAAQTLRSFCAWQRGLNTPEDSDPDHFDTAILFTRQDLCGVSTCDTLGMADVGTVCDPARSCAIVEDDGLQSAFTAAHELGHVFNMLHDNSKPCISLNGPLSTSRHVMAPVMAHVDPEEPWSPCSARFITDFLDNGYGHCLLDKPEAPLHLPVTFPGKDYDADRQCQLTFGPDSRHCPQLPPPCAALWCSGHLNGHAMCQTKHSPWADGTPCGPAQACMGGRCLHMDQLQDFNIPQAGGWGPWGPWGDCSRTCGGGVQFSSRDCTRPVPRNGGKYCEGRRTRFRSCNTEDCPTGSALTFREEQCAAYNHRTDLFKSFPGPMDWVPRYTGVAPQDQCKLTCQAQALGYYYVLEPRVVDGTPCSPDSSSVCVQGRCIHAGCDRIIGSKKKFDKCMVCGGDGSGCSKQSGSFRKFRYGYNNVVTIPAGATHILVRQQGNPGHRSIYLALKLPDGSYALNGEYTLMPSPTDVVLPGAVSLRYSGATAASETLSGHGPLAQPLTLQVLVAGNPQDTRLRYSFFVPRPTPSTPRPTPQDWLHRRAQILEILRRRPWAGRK
The experiment can be described thus: In Vitro Fluorescence Assay of ADAMTS-4 or ADAMTS-5 Activity. The procedure: Table 1: A FRET (fluorescence resonance energy transfer) peptide was cleaved by recombinant ADAMTS-4 or ADAMTS-5 proteins into two separate fragments resulting in an increase of fluorescence signal which was quantified. The peptide was 5-FAM-TEGEARGSVILLK(5-TAMRA)K-NH2, customized from ANASPEC. ADAMTS-4 recombinant protein (catalog #4307-AD) and ADAMTS-5 recombinant protein (catalog #2198-AD) were purchased from R&D Systems. An assay buffer containing 50 mM HEPES pH 7.5, 100 mM NaCl, 5 mM CaCl2, 0.1% CHAPS and 5% Glycerol was prepared. A volume of 2.5 μl of compound in the assay buffer was dispensed to a 384-well plate, and 2.5 μl of ADAMTS-4 or ADAMTS-5 protein (final concentration in the reaction was 10 nM) was added. The compounds and proteins were pre-incubated at room temperature for 15 minutes. Then, 5 μl of substrate was added to each well. The final substrate concentrations for ADAMTS-4 and ADAMTS-5 were 15 μM and 8 μM, respectively. The fluorescence signal in each well was determined, after incubation at 37° C. for 3 hours, on a TECAN plate reader (Excitation, 490 nm; Emission, 520 nm).

As for `CC(C[C@@]1(C2CC2)NC(=O)NC1=O)C(=O)N1Cc2cc(Cl)c(Cl)cc2C1C` (some centres not stated) [US20240299360, Example 70], the IC50 is 0.026 µM and 0.083 µM in experiment [1]; 0.02 µM in experiment [2].
